# From patent US20110151485A1, “METHOD FOR SCREENING FOR ANTIANGIOGENIC AGENT, AND METHOD FOR SCREENING FOR ANTIANGIOGENIC SIGNAL GENE” (National University Corporation Tokyo Medical and Dental …, priority 2008, published 2011)
# Legend:
# Type in all cases: cell-based
# ID1 gene = assay: real-time quantitative RT-PCR, ID1 gene, human umbilical vein endothelial cells; settings: 4 to 8 hours
# Experimental: (§2) Human umbilical vein endothelial cells cultured in HamF12K medium were treated with 40 μg/ml rifampicin or 1.0×10^−8 M endostatin, and maintained at 37° C. for 4 to 8 hours. […] After establishing the quantification condition, the amount of mRNA for these genes were quantified. […] Human umbilical vein endothelial cells cultured in HamF12K medium were treated with 20 μM salubrinal, and maintained at 37° C. for 4 to 8 hours. Subsequently, total cell extracts were subjected to real-time quantitative RT-PCR using TaqMan probe for ID1 gene, ID3 gene, integrinαv gene, Flt gene and Ephrin A1 gene, respectively. After establishing the quantification condition, the amount of mRNA for these genes were quantified.
# ID3 gene = assay: real-time quantitative RT-PCR, ID3 gene, human umbilical vein endothelial cells; settings: 4 to 8 hours
# Experimental: as §2
# integrinαv gene = assay: real-time quantitative RT-PCR, integrinαv gene, human umbilical vein endothelial cells; settings: 4 to 8 hours
# Experimental: as §2
# Flt gene = assay: real-time quantitative RT-PCR, Flt gene, human umbilical vein endothelial cells; settings: 4 to 8 hours
# Experimental: as §2
# Ephrin A1 gene = assay: real-time quantitative RT-PCR, Ephrin A1 gene, human umbilical vein endothelial cells; settings: 4 to 8 hours
# Experimental: as §2
# PKR [1] = assay: western blotting with phospho-specific anti-PKR antibody, human retina vessel endothelial cells (hREC); settings: 40 μg/ml rifampicin or 1.0×10^−9 M endostatin, 10 to 240 minutes
# Experimental: (§1) Human retina vessel endothelial cells (hREC) or human umbilical vein endothelial cells (hUVEC) cultured in HamF12K medium supplemented with 10% bovine fetal serum and growth factors were treated with either 40 μg/ml rifampicin or 1.0×10^−9 M endostatin, and maintained at 37° C. for 10 to 240 minutes. Total cell extracts from the maintained cells were then subjected to western blotting using phospho-specific anti-PKR antibody to examine the time course of PKR phosphorylation.
# PKR [2] = assay: western blotting with phospho-specific anti-PKR antibody, human umbilical vein endothelial cells (hUVEC); settings: 40 μg/ml rifampicin or 1.0×10^−9 M endostatin, 10 to 240 minutes
# Experimental: as §1
# PKR [3] = assay: western blotting with phospho-specific anti-PKR antibody, aorta endothelial cells (rAEC); settings: rat aorta derived primary endothelial cells, 4 or 8 hours
# Experimental: Similarly, […] aorta endothelial cells (rAEC) were treated respectively with salubrinal (20 μM), rifampicin (40 μg/ml), or endostatin (1.0×10^−9 M); PKR inhibitor A (2-aminopurine, 10 mM) followed by endostatin (1.0×10^−9 M); PKR inhibitor B (8-(imidazole-4-ylmethylene)-6H-azolidino [5,4-g]benzodiazole-7-one, 0.3 μM) followed by rifampicin (40 μg/ml); and PKR inhibitor B (same as above, 0.3 μM) followed by endostatin (1.0×10^−9 M); and maintained at 37° C. for 4 or 8 hours. Total cell extracts from respective samples were subjected to western blotting analysis using phospho-specific anti-PKR antibody to determine the extent of PKR phosphorylation.
# PKR [4] = assay: fluorescent antibody staining with phospho-specific anti-PKR antibody, human umbilical vein endothelial cells
# Experimental: Human umbilical endothelial cells cultured in HamF12K were treated with 40 μg/ml of rifampicin or 1.0×10^−9 M of endostatin, and maintained at 37° C. for 30 minutes. Cells were then stained using phospho-specific anti-PKR antibody as the primary antibody, and the presence of phosphorylated PKR was examined in the cells.
# Similar experiments were also performed in human umbilical vein endothelial cells pre-treated with structural analog of PKR inhibitor (PKR negative) and then treated with 40 μg/ml rifampicin, as well as in human umbilical vein endothelial cells pre-treated with PKR inhibitor B (8-(imidazole-4-ylmethylene)-6H-azolidino [5,4-g]benzodiazole-7-one, 0.3 μM) and then treated with 40 μg/ml rifampicin or 1.0×10^−9 M endostatin, respectively.
# PKR mRNA = assay: real-time quantitative RT-PCR, PKR mRNA, human umbilical vein endothelial cells; settings: 40 μg/ml rifampicin or 1.0×10^−8 M endostatin, 4 to 8 hours
# Experimental: Human umbilical vein endothelial cells cultured in HamF12K medium were treated with 40 μg/ml rifampicin or 1.0×10^−8 M endostatin, and maintained at 37° C. for 4 to 8 hours. Subsequently, total cell extracts were subjected to real-time quantitative RT-PCR using TaqMan probe for PKR mRNA, and the amount of PKR mRNA was quantified. Similar processes were repeated for human umbilical vein endothelial cell samples that were transfected with PKR siRNA prior to rifampicin or endostatin treatment.
# [5] = hUVEC transfected with PKR siRNA prior to 40 μg/ml rifampicin or 1.0×10^−8 M endostatin
# [6] = hUVEC, 40 μg/ml rifampicin or 1.0×10^−8 M endostatin
compound,measurement,setting,value
"O=C(/C=C/c1ccccc1)NC(NC(=S)Nc1cccc2cccnc12)C(Cl)(Cl)Cl (stereo not drawn) [salubrinal, reference compound]",expression level of mRNA for ID1 gene,"ID1 gene; hUVEC, 20 μM salubrinal",decrease
same,expression level of mRNA for ID3 gene,"ID3 gene; hUVEC, 20 μM salubrinal",decrease
same,expression level of mRNA for integrinαv gene,"integrinαv gene; hUVEC, 20 μM salubrinal",decrease
same,expression level of mRNA for Flt gene,"Flt gene; hUVEC, 20 μM salubrinal",decrease
same,expression level of mRNA for Ephrin A1 gene,"Ephrin A1 gene; hUVEC, 20 μM salubrinal",decrease
endostatin,phosphorylation of PKR,PKR [1],enhanced
same,phosphorylation of PKR,PKR [2],enhanced
same,phosphorylation of PKR in cells pre-treated with specific PKR inhibitor,PKR [3]; PKR inhibitor B 0.3 μM followed by rifampicin 40 μg/ml or endostatin 1.0×10^−9 M,did not induce PKR phosphorylation
same,phosphorylation of PKR,PKR [3]; rifampicin 40 μg/ml or endostatin 1.0×10^−9 M,induced phosphorylation of PKR
same,PKR phosphorylation in the cell (fluorescent antibody),"PKR [4]; 40 μg/ml rifampicin or 1.0×10^−9 M endostatin, 30 minutes",induced enhancement of PKR phosphorylation
same,PKR phosphorylation in cells pre-treated with specific PKR inhibitor (fluorescent antibody),"PKR [4]; PKR inhibitor B 0.3 μM, then 40 μg/ml rifampicin or 1.0×10^−9 M endostatin",did not occur
same,PKR expression (PKR mRNA),PKR mRNA,increased
same,decrease of expression of ID1 gene in PKR siRNA treated samples,ID1 gene; [5],did not occur
same,expression level of ID1 gene,ID1 gene; [6],decreased
same,decrease of expression of ID3 gene in PKR siRNA treated samples,ID3 gene; [5],did not occur
same,expression level of ID3 gene,ID3 gene; [6],decreased
same,decrease of expression of integrinαv gene in PKR siRNA treated samples,integrinαv gene; [5],did not occur
same,expression level of integrinαv gene,integrinαv gene; [6],decreased
same,decrease of expression of Flt gene in PKR siRNA treated samples,Flt gene; [5],did not occur
same,expression level of Flt gene,Flt gene; [6],decreased
same,decrease of expression of Ephrin A1 gene in PKR siRNA treated samples,Ephrin A1 gene; [5],did not occur
same,expression level of Ephrin A1 gene,Ephrin A1 gene; [6],decreased
"O=C1Nc2ccc3ncsc3c2C1=Cc1cnc[nH]1 [PKR inhibitor B, reference compound]",effect of PKR inhibitor pre-treatment on rifampicin or endostatin induced PKR phosphorylation,PKR [3]; inhibitor 0.3 μM,did not induce PKR phosphorylation
same,effect of PKR inhibitor pre-treatment on PKR phosphorylation after rifampicin or endostatin treatment (fluorescent antibody),PKR [4]; inhibitor 0.3 μM,did not occur
